Reference: article PMC4809288, “Formation of β-glucogallin, the precursor of ellagic acid in strawberry and raspberry” (Journal of Experimental Botany, 2016)

Each molecule was assayed against T1, FaGT2* (Fragaria x ananassa, UniProt Q66PF4) (assay: radiochemical UDP-[…]glucose transfer assay, butanol extraction, LSC; Hanes-Woolf and non-linear fit). Details: 100 mM Tris-HCl pH 7.0, 30 °C, 30 min, fixed UDP-glucose (10 010 pmol); GST fusion.
T1 construct: gene GT2; full-length ORF, N-terminal GST tag kept (pGEX-4T-1), E. coli BL21(DE3) pLysS; natural allele of FaGT2 with eight amino acid differences, of which R230, E420, I422 (FaGT2: S230, D420, V422) are given
Format: biochemical

T1 sequence (Q66PF4 whole entry, the tested form may be a part): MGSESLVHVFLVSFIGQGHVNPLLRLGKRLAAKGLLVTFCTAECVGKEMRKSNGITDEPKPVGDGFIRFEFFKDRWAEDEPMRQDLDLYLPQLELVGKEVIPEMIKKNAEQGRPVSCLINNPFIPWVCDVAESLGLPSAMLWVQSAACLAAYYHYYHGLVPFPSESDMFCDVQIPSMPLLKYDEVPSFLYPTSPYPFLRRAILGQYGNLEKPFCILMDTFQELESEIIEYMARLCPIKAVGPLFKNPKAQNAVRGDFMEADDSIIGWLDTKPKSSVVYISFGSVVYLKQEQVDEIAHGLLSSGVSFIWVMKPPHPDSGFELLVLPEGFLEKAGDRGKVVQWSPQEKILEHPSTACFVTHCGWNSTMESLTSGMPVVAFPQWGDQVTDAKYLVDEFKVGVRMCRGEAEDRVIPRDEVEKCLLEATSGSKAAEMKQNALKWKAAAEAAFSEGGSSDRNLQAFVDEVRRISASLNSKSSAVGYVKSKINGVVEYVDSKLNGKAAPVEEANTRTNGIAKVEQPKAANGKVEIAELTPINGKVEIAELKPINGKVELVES

Row | Km [µM] | SMILES
1 | 315 ± 8.4 | O=C(O)c1ccc(O)cc1 [4-Hydroxybenzoic acid]
2 | 35 ± 3 | COc1cc(/C=C/C(=O)O)cc(OC)c1O [Sinapic acid]
3 | 262 ± 7 | COc1cc(C(=O)O)cc(OC)c1O [Syringic acid]
4 | 364 ± 12.8 | COc1cc(C(=O)O)ccc1O [Vanillic acid]
